Measurements reported in the supplement of paper PMC8960247.
Structures can show the parent of a compound that is named as a salt. ± gives the standard error.

Key:
621-103 (TSC2-rescued) = assay: relative viability vs DMSO; higher = less cytotoxic; settings: serum: 10% FBS, 72 h
621-102 (TSC2-deficient) = assay: as above; settings: serum: 10% FBS, 72 h
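Also: immortalized renal angiomyolipoma cells stably carrying empty vector or TSC2, dosed in 384-well plates in DMEM, viability normalized to vehicle-treated wells within each plate.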

Row | Structure (SMILES) | relative viability (621-103 (TSC2-rescued); 0.0001 µM) | relative viability (621-103 (TSC2-rescued); 0.001 µM) | relative viability (621-103 (TSC2-rescued); 0.01 µM) | relative viability (621-103 (TSC2-rescued); 0.1 µM) | relative viability (621-103 (TSC2-rescued); 1 µM) | relative viability (621-103 (TSC2-rescued); 10 µM) | relative viability (621-102 (TSC2-deficient); 0.0001 µM) | relative viability (621-102 (TSC2-deficient); 0.001 µM) | relative viability (621-102 (TSC2-deficient); 0.01 µM) | relative viability (621-102 (TSC2-deficient); 0.1 µM) | relative viability (621-102 (TSC2-deficient); 1 µM) | relative viability (621-102 (TSC2-deficient); 10 µM)
1 | CN(C)CC/C=C1/c2ccccc2COc2ccc(CC(=O)O)cc21 [Olopatadine HCl (Opatano)] | 104 ± 5% | 103 ± 5.9% | 97 ± 4% | 102 ± 1.3% | 98.51 ± 0.44% | 103 ± 4.8% | 114 ± 2.8% | 114 ± 2.6% | 108 ± 1.5% | 113 ± 3.7% | 105 ± 1.6% | 97.2 ± 6.5%
2 | Cc1cc(C(C)(C)C)c(O)c(C)c1CC1=NCCN1 [Oxymetazoline HCl] | 99.9 ± 0.63% | 96.5 ± 1.5% | 99.3 ± 6% | 98.5 ± 5% | 103 ± 4.4% | 98.8 ± 3.1% | 120 ± 4.5% | 116 ± 4.1% | 112 ± 2% | 107 ± 4.2% | 113.2 ± 0.75% | 103 ± 2.8%
3 | O=C(O)/C=C/c1ccc(Cn2ccnc2)cc1 [Ozagrel] | 107 ± 1.8% | 112 ± 1.7% | 98.4 ± 2.8% | 104 ± 3.1% | 106 ± 2.4% | 103 ± 1.1% | 100 ± 3.7% | 108 ± 3.7% | 105 ± 2.5% | 110 ± 5.1% | 102.8 ± 0.53% | 95.1 ± 4.6%
4 | O=C(Nc1cccnc1)N1CCC(Cc2cccc(Oc3ccc(C(F)(F)F)cn3)c2)CC1 [PF-3845] | 110 ± 5.4% | 116 ± 8.3% | 112.64 ± 0.013% | 109 ± 4.7% | 116.1 ± 0.73% | 103 ± 1.1% | 104 ± 3.4% | 103 ± 2.9% | 104 ± 1.5% | 102.11 ± 0.087% | 102 ± 3.6% | 98.8 ± 1.6%
5 | Oc1cccc(-c2nc(N3CCOCC3)c3oc4ncccc4c3n2)c1 [PI-103] | 112 ± 1.2% | 95.6 ± 3.2% | 101.2 ± 0.72% | 102.5 ± 0.82% | 83.4 ± 2.7% | 38 ± 0.63% | 105 ± 1.1% | 92.1 ± 7.2% | 95.5 ± 3.6% | 103 ± 1.9% | 91.8 ± 3.4% | 37.66 ± 0.19%
